Laboratory results published in US12516038B2, “Inhibitors of antigen presentation by HLA-DR” (Janssen Pharmaceutica NV, priority 2020, dated 2026).

Tests used:
[1] = system: HLA-DR4 restricted mouse T cell hybridoma line (DR4.CII.36.8) with HLA-DRB1*04:01-expressing Boleth cells; assay: HLA-DR4-restricted peptide-specific T cell-based assay (hybridoma assay); settings: 6 h, inhibition of IL-2 production, CII259-273 peptide presented by Boleth cells
Method in brief: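 IC50 values derive from 4-parameter logistic fits of IL-2 AlphaLISA signal over 8-point duplicate titrations. Compound and HLA-DRB1*04:01 Boleth APCs were preincubated 1 h, 37° C., before adding CII259-273-restricted DR4.CII.36.8 hybridoma cells with peptide for 6 h at 37° C., in DMEM/1% FCS.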

[2] = system: human peripheral blood CD4+ helper T cells; assay: Pan-CD4+ T cell activation (off-target assay); type: cell-based; settings: anti-CD3/anti-CD28 stimulation, IL-2 production by ELISA
Method in brief: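 IL-2 secretion was measured by ELISA of culture supernatant after 24 h of TCR stimulation. Stimulation used anti-CD3 coated at 1 μg/mL and 1 μg/mL soluble anti-CD28 on human blood CD4+ helper T cells without HLA-DR-expressing APCs, with compound or vehicle present.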

HLA-DRB1*0401 = HLA-DRB1*0401 (Homo sapiens (Human), UniProt P01903+P01911, A100K/A169T/DEL228-266/F76Y/I96L/K127E/L162R/M171V/N62H/P40V/Q125Y/R42H/S133A/S149N/S66Y/V115G/V209L/W38E); assay: HLA-DR4 HTRF assay; type: binding; settings: inhibition of loading of Alexa Fluor 647-labeled Cit-CII peptide onto HLA-DR4 (CLIP cleaved)
Method in brief: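 HLA-DRB1*04:01 construct (α/β fused to human Fc, CLIP pre-cleaved by HRV3C overnight at 4° C) at 3 nM was preincubated 45 min with compound and 1 nM anti-Fc-Tb donor, then 40 nM Alexa647-Cit-CII1236-1249 peptide added. After 90 min at 37° C, the 665/620 nm HTRF ratio gave % inhibition; IC50 by nonlinear regression.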

Row | SMILES | IC50 ([1]; Mus musculus, T-cell) [nM] | IC50 ([2]; Homo sapiens, T-cell, 24 h) [nM] | IC50 (HLA-DRB1*0401) [nM] | IC50 [1] [nM] | IC50 ([2]; 24 hrs) [nM]
1 | Cc1c(O[C@@H](c2ccncc2)c2ccc(C(N)=O)cc2)c(F)cc2c1OCCC2=O (single isomer, unassigned) [Example 58a, (*R)-4-(((6-fluoro-8-methyl-4-oxochroman-7-yl)oxy)(pyridin-4-yl)methyl)benzamide] | 180 | 5300 | 330 | – | –
2 | Cc1c(O[C@H](c2ccncc2)c2ccc(C(N)=O)cc2)c(F)cc2c1OCCC2=O (single isomer, unassigned) [Example 58b, (*S)-4-(((6-fluoro-8-methyl-4-oxochroman-7-yl)oxy)(pyridin-4-yl)methyl)benzamide] | 2600 | 9900 | 730 | – | –
3 | Cc1c(O[C@H](c2ccc(C#N)cc2)c2ccc(C(N)=O)cc2)ccc2c1OCCC2=O (single isomer, unassigned) [Example 59a, (*R)-4-((4-cyanophenyl)((8-methyl-4-oxochroman-7-yl)oxy)methyl)benzamide] | 3200 | 4700 | 1200 | – | –
4 | Cc1c(O[C@H](c2ccc(C(N)=O)cc2)c2cccc(C#N)c2)ccc2c1OCCC2=O (single isomer, unassigned) [Example 60a, (*R)-4-((3-cyanophenyl)((8-methyl-4-oxochroman-7-yl)oxy)methyl)benzamide] | 740 | 4700 | 1800 | – | –
5 | Cc1c(O[C@@H](c2ccc(C(N)=O)cc2)c2cccc(C#N)c2)ccc2c1OCCC2=O (single isomer, unassigned) [Example 60b, (*S)-4-((3-cyanophenyl)((8-methyl-4-oxochroman-7-yl)oxy)methyl)benzamide] | 2300 | 9900 | 2000 | – | –
6 | Cc1c(O[C@H](c2ccc(C(N)=O)cc2)c2ccccc2C#N)ccc2c1OCCC2=O (single isomer, unassigned) [Example 61a, (*R)-4-((2-cyanophenyl)((8-methyl-4-oxochroman-7-yl)oxy)methyl)benzamide] | 4600 | 2700 | 990 | – | –
7 | Cc1c(O[C@@H](c2ccc(C(N)=O)cc2)c2ccccc2C#N)ccc2c1OCCC2=O (single isomer, unassigned) [Example 61b, (*S)-4-((2-cyanophenyl)((8-methyl-4-oxochroman-7-yl)oxy)methyl)benzamide] | 5200 | > 15000 | 960 | – | –
8 | Cc1c(O[C@H](c2ccc(C(N)=O)cc2)c2ccc(Cl)cn2)ccc2c1OCCC2=O (single isomer, unassigned) [Example 62a, (*R)-4-((5-chloropyridin-2-yl)((8-methyl-4-oxochroman-7-yl)oxy)methyl)benzamide] | 8500 | 4700 | 1500 | – | –
9 | Cc1c(O[C@@H](c2ccc(C(N)=O)cc2)c2ccc(Cl)cn2)ccc2c1OCCC2=O (single isomer, unassigned) [Example 62b, (*S)-4-((5-chloropyridin-2-yl)((8-methyl-4-oxochroman-7-yl)oxy)methyl)benzamide] | 1800 | 2700 | 1400 | – | –
10 | Cc1c(O[C@@H](c2ccc(Cl)cc2)c2ccc(C(N)=O)cn2)ccc2c1OCCC2=O (single isomer, unassigned) [Example 63b, (*S)-6-((4-chlorophenyl)((8-methyl-4-oxochroman-7-yl)oxy)methyl)nicotinamide] | 1300 | 4700 | 1500 | – | –
11 | Cc1c(O[C@H](c2ccc(Cl)cc2)c2ccc(C(N)=O)nc2)ccc2c1OCCC2=O (single isomer, unassigned) [Example 64a, (*R)-5-((4-chlorophenyl)((8-methyl-4-oxochroman-7-yl)oxy)methyl)picolinamide] | 6000 | 2000 | 1700 | – | –
12 | Cc1c(O[C@@H](c2ccc(Cl)cc2)c2ccc(C(N)=O)nc2)ccc2c1OCCC2=O (single isomer, unassigned) [Example 64b, (*S)-5-((4-chlorophenyl)((8-methyl-4-oxochroman-7-yl)oxy)methyl)picolinamide] | 4800 | > 15000 | 1800 | – | –
13 | Cc1c(O[C@@H](c2ccc(C(N)=O)cc2)c2cccc[n+]2[O-])ccc2c1OCCC2=O (single isomer, unassigned) [Example 65b, (*S)-2-((4-carbamoylphenyl)((8-methyl-4-oxochroman-7-yl)oxy)methyl)pyridine 1-oxide] | – | – | 28000 | 2000 | 15000
14 | Cc1c(O[C@@H](c2ccc(F)cc2)c2ccc(C(N)=O)cc2)ccc2c1OCCC2=O (single isomer, unassigned) [Example 66a, (*R)-4-((4-Fluorophenyl)((8-methyl-4-oxochroman-7-yl)oxy)methyl)benzamide] | 7800 | 4700 | 2700 | – | –
15 | Cc1c(O[C@H](c2ccc(C(N)=O)cc2)c2cccc(F)c2)ccc2c1OCCC2=O (single isomer, unassigned) [Example 67a, (*R)-4-((3-Fluorophenyl)((8-methyl-4-oxochroman-7-yl)oxy)methyl)benzamide] | 2700 | 15000 | 3100 | – | –
16 | Cc1c(O[C@H](c2ccc(C(N)=O)cc2)c2ccccc2F)ccc2c1OCCC2=O (single isomer, unassigned) [Example 68a, (*R)-4-((2-Fluorophenyl)((8-methyl-4-oxochroman-7-yl)oxy)methyl)benzamide] | 5600 | 4700 | 1500 | – | –
17 | Cc1c(O[C@H](c2ccccc2)c2ccc(C(N)=O)cc2)ccc2c1OCCC2=O (single isomer, unassigned) [Example 69a, (*R)-4-(((8-Methyl-4-oxochroman-7-yl)oxy)(phenyl)methyl)benzamide] | 2200 | 6100 | 2100 | – | –
18 | Cc1c(O[C@H](c2ccccc2)c2ccc(C(=O)O)cc2)ccc2c1OCCC2=O (single isomer, unassigned) [Example 70a, (*R)-4-(((8-methyl-4-oxochroman-7-yl)oxy)(phenyl)methyl)benzoic acid] | 7100 | 4700 | 1300 | – | –
19 | Cc1c(O[C@@H](c2ccccc2)c2ccc(C(=O)O)cc2)ccc2c1OCCC2=O (single isomer, unassigned) [Example 70b, (*S)-4-(((8-methyl-4-oxochroman-7-yl)oxy)(phenyl)methyl)benzoic acid] | 4800 | 9900 | 1500 | – | –
20 | Cc1c(O[C@H](c2ccc(C(N)=O)cc2)c2ccc(C(=O)O)cc2)ccc2c1OCCC2=O (single isomer, unassigned) [Example 71a, (*R)-4-((4-carbamoylphenyl)((8-methyl-4-oxochroman-7-yl)oxy)methyl)benzoic acid] | 1500 | > 15000 | 1600 | – | –
21 | Cc1c(O[C@@H](c2ccc(C(N)=O)cc2)c2ccc(C(=O)O)cc2)ccc2c1OCCC2=O (single isomer, unassigned) [Example 71b, (*S)-4-((4-carbamoylphenyl)((8-methyl-4-oxochroman-7-yl)oxy)methyl)benzoic acid] | 200 | > 15000 | 930 | – | –
22 | CN(C)C(=O)c1ccc([C@@H](Oc2ccc3c(c2)OCCC3=O)c2ccncc2)cc1 (single isomer, unassigned) [Example 72a, (*R)—N,N-dimethyl-4-(((4-oxochroman-7-yl)oxy)(pyridin-4-yl)methyl)benzamide] | 6300 | 9900 | 840 | – | –
23 | CN(C)C(=O)c1ccc([C@H](Oc2ccc3c(c2)OCCC3=O)c2ccncc2)cc1 (single isomer, unassigned) [Example 72b, (*S)—N,N-dimethyl-4-(((4-oxochroman-7-yl)oxy)(pyridin-4-yl)methyl)benzamide] | 11000 | > 15000 | 690 | – | –
24 | CCc1c(O[C@@H](c2ccncc2)c2ccc(C(N)=O)cc2)ccc2c1OCCC2=O (single isomer, unassigned) [Example 73a, (*R)-4-(((8-ethyl-4-oxochroman-7-yl)oxy)(pyridin-4-yl)methyl)benzamide] | 110 | 8000 | 540 | – | –
25 | CCc1c(O[C@H](c2ccncc2)c2ccc(C(N)=O)cc2)ccc2c1OCCC2=O (single isomer, unassigned) [Example 73b, (*S)-4-(((8-ethyl-4-oxochroman-7-yl)oxy)(pyridin-4-yl)methyl)benzamide] | 710 | 15000 | 600 | – | –
26 | CCc1cc2c(cc1O[C@@H](c1ccncc1)c1ccc(C(N)=O)cc1)OCCC2=O (single isomer, unassigned) [Example 74a, (*R)-4-(((6-ethyl-4-oxochroman-7-yl)oxy)(pyridin-4-yl)methyl)benzamide] | 120 | 2200 | 550 | – | –
